Reference: patent US10877026B2, “Blood brain barrier models and methods to generate and use the same” (Purdue Research Foundation, priority 2016, dated 2020)
Like-named read-outs stand apart in the source and are kept apart here.

Legend:
direct contact coculture = assay: MTT cell viability assay; type: cell-based, human; settings: n=6
Description: Cell viability in the presence of various HEPES concentrations was inferred by the mitochondrial oxidation of 3-(4,5-dimethylthiazol-2-yl)-2,5-diphenyltetrazolium bromide (MTT) dye. The direct contact coculture was plated in a 96-well plate following the same methods as stated above. On Day 7 post hCMEC/D3 plating, media containing HEPES was removed and replaced with 190 μL, fresh media and 10 μL of 5 mg/mL MTT and incubated at 37° C. with 5% CO2 for 4 hours. MTT was then removed and replaced with 200 μL DMSO and left agitating at room temperature for 1 hour. Absorbance at 570 nm was determined using a plate reader. Cell viability was normalized to 10 mM HEPES control. Assays were performed with n=6.

[1] = tested on: co-culture of astrocytes and pericytes; assay: Mannitol permeability across mono- or co-cultures of astrocytes and pericytes; type: in vitro ADME
[2] = tested on: direct-contact triculture of astrocytes, pericytes and hCMEC/D3 cells
in vitro [3] = settings: human
in vitro [4] = settings: human; remark: listed apart in the source
Description: (§1) For human astrocyte monocultures, 4×10^4 cells were seeded onto Transwells® coated with 2 μg/cm^2 poly-L-lysine and grown for 9 days prior to permeability studies.
(§2) Before all permeability studies, cells were washed twice with PBS before equilibrating in HBSS for 20 minutes shortly before the study. After study initiation, 100 μL samples were taken at 15, 30, 45, 60, and 90 minute time points. 4 mL of scintillation cocktail was added for analysis by scintillation counting.

[5] = Apparent permeability across human astrocyte monoculture; type: in vitro ADME; settings: human; astrocytes grown in monoculture
Description: as §1
as §2, with “. Before” for “Before”

[6] = tested on: human astrocyte monolayers; assay: as above; type: in vitro ADME
Description: as §1
as §2, with “. Before” for “Before”

hCMEC/D3 monoculture = assay: in vitro
Description: as §1, §2

[7] = tested on: direct contact coculture of human astrocytes and hCMEC/D3 cells
Pgp = molecular target: T1, Pgp (Homo sapiens, UniProt P08183); assay: Drug-interaction of elacridar and digoxin in BBB culture models; type: cell-based; settings: triculture versus hCMEC/D3 monoculture or astrocyte-pericyte co-culture, FIG. 17
T1 construct: endogenous in cells; host or cells: hCMEC/D3 monoculture, astrocyte-pericyte coculture and triculture
T1 sequence (P08183 whole entry): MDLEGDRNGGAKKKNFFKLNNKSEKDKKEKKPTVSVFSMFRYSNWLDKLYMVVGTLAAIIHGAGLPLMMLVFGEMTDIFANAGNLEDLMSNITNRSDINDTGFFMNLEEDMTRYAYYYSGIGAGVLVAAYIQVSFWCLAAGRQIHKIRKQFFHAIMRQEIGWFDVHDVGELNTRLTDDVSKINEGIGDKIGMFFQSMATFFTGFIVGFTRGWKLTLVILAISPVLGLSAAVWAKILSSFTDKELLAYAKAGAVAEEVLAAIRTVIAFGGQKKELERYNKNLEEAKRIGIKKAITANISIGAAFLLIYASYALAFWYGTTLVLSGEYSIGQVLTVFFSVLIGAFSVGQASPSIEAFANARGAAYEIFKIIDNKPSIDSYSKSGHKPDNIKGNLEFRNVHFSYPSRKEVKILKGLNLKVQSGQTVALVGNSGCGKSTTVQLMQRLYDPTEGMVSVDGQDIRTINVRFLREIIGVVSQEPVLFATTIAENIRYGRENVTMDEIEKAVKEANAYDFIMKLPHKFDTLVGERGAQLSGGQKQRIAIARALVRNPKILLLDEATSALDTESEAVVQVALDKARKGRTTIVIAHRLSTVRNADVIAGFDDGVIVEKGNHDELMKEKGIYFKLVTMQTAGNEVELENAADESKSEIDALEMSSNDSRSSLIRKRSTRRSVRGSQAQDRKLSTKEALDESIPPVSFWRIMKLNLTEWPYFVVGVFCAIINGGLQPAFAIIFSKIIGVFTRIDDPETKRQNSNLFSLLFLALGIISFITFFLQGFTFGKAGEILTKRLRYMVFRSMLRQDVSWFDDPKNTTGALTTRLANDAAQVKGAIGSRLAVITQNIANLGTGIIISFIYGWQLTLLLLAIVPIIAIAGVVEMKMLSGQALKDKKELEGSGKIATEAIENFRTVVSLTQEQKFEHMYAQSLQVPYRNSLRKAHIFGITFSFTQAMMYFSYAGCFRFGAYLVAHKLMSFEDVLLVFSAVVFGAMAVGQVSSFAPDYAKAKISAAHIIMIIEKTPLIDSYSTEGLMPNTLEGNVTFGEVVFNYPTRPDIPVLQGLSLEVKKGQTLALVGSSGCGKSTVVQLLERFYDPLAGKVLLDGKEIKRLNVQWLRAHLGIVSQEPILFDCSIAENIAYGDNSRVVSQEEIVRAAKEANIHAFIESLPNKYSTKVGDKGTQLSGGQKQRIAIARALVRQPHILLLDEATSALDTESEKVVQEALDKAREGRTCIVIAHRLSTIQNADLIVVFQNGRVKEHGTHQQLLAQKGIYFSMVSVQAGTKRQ

[8] = tested on: direct-contact triculture of astrocytes, pericytes and hCMEC/D3 cells; assay: Permeability across direct-contact triculture BBB model; settings: hCMEC/D3 monoculture as control, n=5, FIG. 9
[9] = tested on: direct contact coculture of human astrocytes and hCMEC/D3 cells; assay: Apparent permeability across direct contact coculture on Transwell; settings: for apparent permeability, reproducibility: different passage number

## O=S(=O)(O)CCN1CCN(CCO)CC1 [HEPES, 4-(2-hydroxyethyl)-1-piperazineethanesulfonic acid]
Direct contact coculture; 25 mM HEPES in comparison to 10 mM HEPES control
  change in cell viability (MTT): −8.2±2.0%
Direct contact coculture; 50 mM HEPES compared to 10 mM HEPES control
  change in cell viability (MTT): −28.4±2.6%

## OC[C@@H](O)[C@@H](O)[C@H](O)[C@H](O)CO [Mannitol]
[1]; co-culture of astrocytes and pericytes versus astrocytes monoculture, FIG. 8B, n=6
  effective permeability: lower in comparison to monoculture of astrocytes
[1]; co-culture versus astrocytes or pericytes alone, FIG. 8A
  apparent permeability: lower in the co-culture of astrocytes and pericytes
[2]; human, 90 min, 0.25 μCi/mL
  decrease in permeability, mono- versus tri-culture: 1.5 fold
In vitro [3]; Papp
  Papp A→B at 90 min, 0.25 μCi/mL: 15.2 ± 0.69 ×10⁻⁶ cm/s
In vitro [3]; apparent permeability
  Papp A→B at 90 min, 0.25 μCi/mL: 15.2 ± 0.7 ×10⁻⁶ cm/s

## CC(C)NCC(O)COc1cccc2ccccc12 (stereo not drawn) [Propranolol]
In vitro [4]
  Papp A→B at 90 min, 0.25 μCi/mL: 19.1 ± 1.9 ×10⁻⁶ cm/s
[5]
  Papp A→B at 90 min, 0.25 μCi/mL: 45.8 ± 4.1 ×10⁻⁶ cm/s
[6]
  fold lower permeability in hCMEC/D3 and direct contact coculture than in astrocyte monoculture: ~3 fold
[2]
  transcellular permeability across the BBB-triculture relative to L-histidine: significantly slower than L-histidine
In vitro [3]; apparent permeability
  Papp A→B at 90 min, 0.25 μCi/mL: 16.1 ± 0.4 ×10⁻⁶ cm/s

## Cc1ncc(C[n+]2csc(CCO)c2C)c(N)n1 [Thiamine]
[2]
  transcellular permeability across the BBB-triculture relative to L-histidine: significantly slower than L-histidine

## NC(N)=O [Urea]
hCMEC/D3 monoculture
  apparent permeability: 2.96±0.11 ×10^−5 cm/s
[7]
  Papp: 2.43 ± 0.155 ×10^−5 cm/s
  apparent permeability: 2.43±0.15 ×10^−5 cm/s

## COc1cc2c(cc1OC)CN(CCc1ccc(NC(=O)c3cccc4c(=O)c5cccc(OC)c5[nH]c34)cc1)CC2 [elacridar]
Pgp
  inhibition of Pgp function (digoxin): more difficult to inhibit Pgp function in the triculture

## CC(=O)O[C@H]1C(=O)[C@@]2(C)[C@H]([C@H](OC(=O)c3ccccc3)[C@]3(O)C[C@H](OC(=O)[C@H](O)[C@@H](NC(=O)c4ccccc4)c4ccccc4)C(C)=C1C3(C)C)[C@]1(OC(C)=O)CO[C@@H]1C[C@@H]2O [paclitaxel]
[2]
  transcellular permeability across the BBB-triculture relative to L-histidine: significantly slower than L-histidine

## Inulin
hCMEC/D3 monoculture; hCMEC/D3 monoculture, n=3
  apparent permeability: 8.46±0.02 ×10^−6 cm/s
[8]
  decrease in permeability, mono- versus tri-culture: 8 fold
[9]; Table 4, values match the direct contact coculture
  Papp: 0.754 ± 0.030 ×10^−5 cm/s
[9]; direct contact coculture, n=3
  apparent permeability: 7.55±0.3 ×10^−6 cm/s
[9]; first additional independent experiment
  apparent permeability, reproducibility: 7.51±0.01 ×10^−6 cm/s
[9]; second additional independent experiment
  apparent permeability, reproducibility: 7.94±0.03 ×10^−6 cm/s
